# Assay: Positive allosteric modulation of human TIR2/TIR3 expressed in PEAKrapid cells assessed as potentiation of sucrose-induced intracellular calcium influx by measuring sucrose EC50 at 30 uM measured for 120 secs by fluorescence based assay
row,EC50 [mM],Structure (SMILES)
1,2.6,CC(C)(CC(=O)Nc1cncc(C(=O)O)c1N)NC(=O)[C@@H](N)C1CCCCC1
2,9.3,CC(C)[C@H](N)C(=O)NC(C)(C)CC(=O)Nc1cncc(C(=O)O)c1N
3,5.7,CC(C)C[C@H](N)C(=O)NC(C)(C)CC(=O)Nc1cncc(C(=O)O)c1N
4,7.7,CC(C)(CC(=O)Nc1cncc(C(=O)O)c1N)NC(=O)[C@H](N)C1CCCCC1
5,9.5,CC(C)(CC(=O)Nc1cncc(C(=O)O)c1N)NC(=O)[C@@H](N)c1ccccc1
6,7.5,CC(C)(CC(=O)Nc1cncc(C(=O)O)c1N)NC(=O)C1(N)CCCCC1
7,7.3,CC(C)(CC(=O)Nc1cncc(C(=O)O)c1N)NC(=O)[C@@H](N)CC1CCCCC1
8,8.8,CC(C)(CC(=O)Nc1cncc(C(=O)O)c1N)NC(=O)CC[C@@H](N)Cc1ccccc1
9,4.3,CC(C)(CC(=O)Nc1cncc(C(=O)O)c1N)NC(=O)CC1(CN)CCCCC1
10,10.7,CC(C)(CC(=O)Nc1cncc(C(=O)O)c1N)NC(=O)c1cccc(N)c1
11,8.9,CC(C)(CC(=O)Nc1cncc(C(=O)O)c1N)NC(=O)c1ccc(N)cc1
12,9.8,CC(C)(CC(=O)Nc1cncc(C(=O)O)c1N)NC(=O)[C@@H]1CCC[C@H](N)C1
13,7.8,CC(C)(CC(=O)Nc1cncc(C(=O)O)c1N)NC(=O)[C@H]1CC[C@H](N)CC1
14,7.3,CC(C)(CC(=O)Nc1cncc(C(=O)O)c1N)NC(=O)[C@H]1CC[C@@H](N)CC1
15,8,CC(C)(CC(=O)Nc1cncc(C(=O)O)c1N)NC(=O)C1CCNC1 (centres undefined)
16,7.6,CC(C)(CC(=O)Nc1cncc(C(=O)O)c1N)NC(=O)C[C@H]1CCNC1
17,7.4,CC(C)(CC(=O)Nc1cncc(C(=O)O)c1N)NC(=O)C[C@@H]1CCNC1
18,14.4,CC(C)(CC(=O)Nc1cncc(C(=O)O)c1N)NC(=O)C1CCNCC1
19,11.1,CC(C)(CC(=O)Nc1cncc(C(=O)O)c1N)NC(=O)c1ccccc1
20,8.9,CC(C)(CC(=O)Nc1cncc(C(=O)O)c1N)NC(=O)c1cccc2c1CCCC2

row,EC50 [mM],Structure (SMILES)
1,8.4,CC(C)(CC(=O)Nc1cncc(C(=O)O)c1N)NC(=O)C1(c2ccccc2)CC1
2,5.4,CC(C)(CC(=O)Nc1cncc(C(=O)O)c1N)NC(=O)CC1CCCCC1
3,10.9,CC(C)(CC(=O)Nc1cncc(C(=O)O)c1N)NC(=O)CCC1CCCCC1
4,6.1,CC(C)(CC(=O)Nc1cncc(C(=O)O)c1N)NC(=O)C1CCCCC1
5,5.1,CC(C)(CC(=O)Nc1cncc(C(=O)O)c1N)NC(=O)CC1CCCC1
6,7.9,CC(C)C(=O)NC(C)(C)CC(=O)Nc1cncc(C(=O)O)c1N
7,9.3,CC(C)(CC(=O)Nc1cncc(C(=O)O)c1N)NC(=O)C(C)(C)C
8,7.3,CC(C)CC(=O)NC(C)(C)CC(=O)Nc1cncc(C(=O)O)c1N
9,8.1,CC(C)(C)CC(=O)NC(C)(C)CC(=O)Nc1cncc(C(=O)O)c1N
10,6.6,CCCCCC(=O)NC(C)(C)CC(=O)Nc1cncc(C(=O)O)c1N
11,7.8,CCCCCCC(=O)NC(C)(C)CC(=O)Nc1cncc(C(=O)O)c1N
12,10.2,CCCCCCCC(=O)NC(C)(C)CC(=O)Nc1cncc(C(=O)O)c1N
13,11.8,CCCCCCCCCCCC(=O)NC(C)(C)CC(=O)Nc1cncc(C(=O)O)c1N
14,9.9,CCCCCCCC/C=C\CCCCCCCC(=O)NC(C)(C)CC(=O)Nc1cncc(C(=O)O)c1N
15,3.7,CC(C)C[C@H](NC(=O)[C@@H](NC(=O)OC(C)(C)C)C1CCCCC1)C(=O)NC(C)(C)CC(=O)Nc1cncc(C(=O)O)c1N
16,3.3,CC[C@H](C)[C@H](NC(=O)[C@@H](NC(=O)OC(C)(C)C)C1CCCCC1)C(=O)NC(C)(C)CC(=O)Nc1cncc(C(=O)O)c1N
17,5.6,CC(C)C[C@H](NC(=O)[C@@H](N)C1CCCCC1)C(=O)NC(C)(C)CC(=O)Nc1cncc(C(=O)O)c1N
18,5.6,CC[C@H](C)[C@H](NC(=O)[C@@H](N)C1CCCCC1)C(=O)NC(C)(C)CC(=O)Nc1cncc(C(=O)O)c1N
19,2.5,CC(C)(CC(=O)Nc1cncc(C(=O)O)c1N)NC(=O)[C@@H](NC(=O)[C@@H](N)C1CCCCC1)C1CCCCC1
